The text below walks through data of PubChem BioAssay AID256 (DTP/NCI, 2004).

This test has as its system CD2F1 mice, L1210 leukemia ip, survival T/C. The test can be described thus: NCI In Vivo Anticancer Drug Screen. Data for tumor model L1210 Leukemia (intraperitoneal) in CD2F1 (CDF1) mice. The following applies: higher = longer survival. The method in brief: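 Compound-dosed mice with transplantable tumor versus matched vehicle controls; endpoint ratio T/C reported.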

Setting [1] is: endpoint: mean survival time, dose: 100.0 mg/kg/injection, schedule: Q01DX001 (ip), vehicle: saline.
The mark [2] stands for this setting: endpoint: mean survival time, dose: 200.0 mg/kg/injection, schedule: Q01DX001 (ip), vehicle: saline.
Where [3] appears, read: endpoint: mean survival time, dose: 12.5 mg/kg/injection, schedule: Q01DX009 (ip), vehicle: saline with Tween-80.
[4] abbreviates: endpoint: mean survival time, dose: 25.0 mg/kg/injection, schedule: Q01DX009 (ip), vehicle: saline with Tween-80.
Setting [5] is: endpoint: mean survival time, dose: 50.0 mg/kg/injection, schedule: Q01DX009 (ip), vehicle: saline with Tween-80.
Setting [6] is: endpoint: mean survival time, dose: 50.0 mg/kg/injection, schedule: Q04DX002 (ip), vehicle: saline with Tween-80.
Setting [7] is: endpoint: mean survival time, dose: 100.0 mg/kg/injection, schedule: Q04DX002 (ip), vehicle: saline with Tween-80.
[8] abbreviates: endpoint: mean survival time, dose: 200.0 mg/kg/injection, schedule: Q04DX002 (ip), vehicle: saline with Tween-80.
Where [9] appears, read: endpoint: mean survival time, dose: 100.0 mg/kg/injection, schedule: Q01DX009 (ip), vehicle: saline with Tween-80.
Setting [10] is: endpoint: mean survival time, dose: 100.0 mg/kg/injection, schedule: Q04DX003 (ip), vehicle: saline with Tween-80.
The mark [11] stands for this setting: endpoint: mean survival time, dose: 200.0 mg/kg/injection, schedule: Q01DX009 (ip), vehicle: saline with Tween-80.
The mark [12] stands for this setting: endpoint: mean survival time, dose: 200.0 mg/kg/injection, schedule: Q04DX003 (ip), vehicle: saline with Tween-80.
Where [13] appears, read: endpoint: mean survival time, dose: 400.0 mg/kg/injection, schedule: Q01DX009 (ip), vehicle: saline with Tween-80.
[14] abbreviates: endpoint: mean survival time, dose: 400.0 mg/kg/injection, schedule: Q04DX003 (ip), vehicle: saline with Tween-80.
Where [15] appears, read: endpoint: mean survival time, dose: 100.0 mg/kg/injection, schedule: Q01DX009 (ip), vehicle: other.
Setting [16] is: endpoint: mean survival time, dose: 200.0 mg/kg/injection, schedule: Q01DX009 (ip), vehicle: other.

Several values for one entry are separate records, joined by “and”; a condition that tells them apart may be missing. Equal entries are not always repeated. Toxic doses and inconclusive results are not listed. Non-standard residues stand in square brackets, D forms with d. Residues, ends and D or L forms follow the SMILES beside them. *: point of attachment. Cbz = O=C(OCc1ccccc1)*; Dha = C=C(N)C(=O)O

Regarding `O=S(=O)(SC1=NCCN1)c1ccccc1`, the T/C is, setting by setting: under setting [1], 101 % of control; under setting [2], 97 % of control; (endpoint: mean survival time, dose: 400.0 mg/kg/injection, schedule: Q01DX001 (ip), vehicle: saline) 101 % of control.

For the compound `CSC(=NC#N)SC`, the T/C (endpoint: mean survival time, dose: 3.13 mg/kg/injection, schedule: Q01DX001 (ip), vehicle: Klucel (hydroxypropylcellulose) (HPC)) is 101 % of control and the T/C (endpoint: mean survival time, dose: 6.25 mg/kg/injection, schedule: Q01DX001 (ip), vehicle: Klucel (hydroxypropylcellulose) (HPC)) was 104 % of control.

On to `CC1(C)N=C(N)N=C(N)N1c1ccc(OCCCCNC(=O)c2ccc(S(=O)(=O)F)cc2)c(Cl)c1`, for which the T/C is 110 % of control under setting [3]; 110 % of control under setting [4]; 119 % of control and 109 % of control under setting [5]; 104 % of control under setting [6]; 104 % of control under setting [7]; 104 % of control under setting [8].

With `COc1ccc(COC(=O)Nc2ccc(C)cc2)cc1`, the T/C is 100 % of control under setting [6], 100 % of control under setting [7] and 96 % of control under setting [8].

Regarding `COc1cc2c(cc1OC)C(Cc1ccc3cc(OC)c(OC)cc3c1)=NCC2`, the T/C is 93 % of control under setting [9]; 87 % of control under setting [10]; 101 % of control under setting [11]; 89 % of control under setting [12]; 110 % of control under setting [13]; 101 % of control under setting [14].

Turning to `O=C(Nc1cccc(F)c1)c1c(O)[nH]c(=S)[nH]c1=O`, the T/C by setting is: (endpoint: median survival time, dose: 25.0 mg/kg/injection, schedule: Q01DX009 (ip), vehicle: saline with Tween-80) 114 % of control and 106 % of control; (endpoint: median survival time, dose: 50.0 mg/kg/injection, schedule: Q01DX009 (ip), vehicle: saline with Tween-80) 113 % of control and 114 % of control; (endpoint: median survival time, dose: 100.0 mg/kg/injection, schedule: Q01DX009 (ip), vehicle: saline with Tween-80) 117 % of control; (endpoint: median survival time, dose: 200.0 mg/kg/injection, schedule: Q01DX009 (ip), vehicle: saline with Tween-80) 155 % of control.

With `C=C(NC(=O)CNC(=O)OCc1ccccc1)C(=O)O` (Cbz-Gly-[Dha]-OH), the T/C reads like this: under setting [6], 102 % of control; under setting [7], 98 % of control; under setting [8], 96 % of control; (endpoint: mean survival time, dose: 400.0 mg/kg/injection, schedule: Q04DX002 (ip), vehicle: saline with Tween-80) 94 % of control.

`CCCC(C(=O)O)C(CCC)C(=O)O` (centres undefined): the T/C reads like this: under setting [10], 96 % of control; under setting [12], 104 % of control; under setting [14], 101 % of control.

As to `Cc1ccc(Nc2ccc(Nc3ccc(C)cc3)c3c2C(=O)c2ccccc2C3=O)cc1`, the T/C by setting is: under setting [9], 86 % of control; under setting [11], 89 % of control; under setting [13], 89 % of control.

In the case of `CC1C(=O)OC2C1CCC1(C)C=CC(=O)C(C)C21` (centres undefined), the T/C (endpoint: mean survival time, dose: 5.0 mg/kg/injection, schedule: Q04DX002 (ip), vehicle: saline with Tween-80) is 108 % of control; the T/C (endpoint: mean survival time, dose: 10.0 mg/kg/injection, schedule: Q04DX002 (ip), vehicle: saline with Tween-80) is 100 % of control; the T/C (endpoint: mean survival time, dose: 20.0 mg/kg/injection, schedule: Q04DX002 (ip), vehicle: saline with Tween-80) is 108 % of control; the T/C under setting [7] was 116 % of control; the T/C under setting [8] is 120 % of control.

Turning to `CC(=O)NNC(=O)c1ccccc1CO`, the T/C (endpoint: mean survival time, dose: 12.5 mg/kg/injection, schedule: Q01DX009 (ip), vehicle: other) was 89 % of control; the T/C (endpoint: mean survival time, dose: 25.0 mg/kg/injection, schedule: Q01DX009 (ip), vehicle: other) is 90 % of control; the T/C (endpoint: mean survival time, dose: 50.0 mg/kg/injection, schedule: Q01DX009 (ip), vehicle: other) was 97 % of control; the T/C under setting [15] was 94 % of control; the T/C under setting [16] is 101 % of control.

`CCN(CC)C(=O)C(Cc1ccc(OC)c(OC)c1)C(Cc1ccc(OC)c(OC)c1)C(=O)O` (centres undefined): the T/C is, setting by setting: under setting [15], 98 % of control; under setting [16], 98 % of control; (endpoint: mean survival time, dose: 400.0 mg/kg/injection, schedule: Q01DX009 (ip), vehicle: other) 95 % of control.

`CC(=O)OCc1cccnc1`: the T/C runs as follows: (endpoint: mean survival time, dose: 100.0 mg/kg/injection, schedule: Q01DX009 (ip), vehicle: saline) 96 % of control; (endpoint: mean survival time, dose: 200.0 mg/kg/injection, schedule: Q01DX009 (ip), vehicle: saline) 94 % of control; (endpoint: mean survival time, dose: 400.0 mg/kg/injection, schedule: Q01DX009 (ip), vehicle: saline) 86 % of control.

Turning to `COc1cc([N+](=O)[O-])c(C=O)c(C(=O)O)c1OC`, the T/C is 103 % of control under setting [9]; 90 % of control under setting [10]; 104 % of control under setting [11]; 98 % of control under setting [12]; 110 % of control under setting [13]; 107 % of control under setting [14].

As for `O=C(O)C1CCCC[N-]1.[Cl][Pd][Cl]` (centres undefined), the T/C is 95 % of control (endpoint: mean survival time, dose: 12.5 mg/kg/injection, schedule: Q01DX001 (ip), vehicle: saline); 108 % of control (endpoint: mean survival time, dose: 25.0 mg/kg/injection, schedule: Q01DX001 (ip), vehicle: saline); 98 % of control (endpoint: mean survival time, dose: 50.0 mg/kg/injection, schedule: Q01DX001 (ip), vehicle: saline); 104 % of control under setting [1]; 109 % of control under setting [2].

On to `COS(=O)(=O)CC(O)(c1ccccc1)c1ccccc1`, for which the T/C by setting is: (endpoint: mean survival time, dose: 75.0 mg/kg/injection, schedule: Q01DX009 (ip), vehicle: saline) 102 % of control; (endpoint: mean survival time, dose: 75.0 mg/kg/injection, schedule: Q04DX003 (ip), vehicle: saline) 97 % of control; (endpoint: mean survival time, dose: 150.0 mg/kg/injection, schedule: Q01DX009 (ip), vehicle: saline) 100 % of control; (endpoint: mean survival time, dose: 150.0 mg/kg/injection, schedule: Q04DX003 (ip), vehicle: saline) 95 % of control; (endpoint: mean survival time, dose: 300.0 mg/kg/injection, schedule: Q01DX009 (ip), vehicle: saline) 100 % of control; (endpoint: mean survival time, dose: 300.0 mg/kg/injection, schedule: Q04DX003 (ip), vehicle: saline) 95 % of control.

In the case of `CN(C)C(=O)c1ccc[n+](CC(=O)NCc2ccccc2)c1`, the T/C runs as follows: (endpoint: mean survival time, dose: 100.0 mg/kg/injection, schedule: Q04DX003 (ip), vehicle: saline) 98 % of control; (endpoint: mean survival time, dose: 200.0 mg/kg/injection, schedule: Q04DX003 (ip), vehicle: saline) 98 % of control.

With `O=C(NNC(=O)NC1OCC(O)C(O)C1O)Nc1ccccc1` (centres undefined), the T/C runs as follows: under setting [10], 101 % of control; under setting [12], 98 % of control; under setting [14], 98 % of control.

For the compound `Cc1ccc[n+](CCc2c[nH]c3ccccc23)c1`, the T/C is 100 % of control under setting [3]; 96 % of control under setting [4]; 98 % of control (endpoint: mean survival time, dose: 25.0 mg/kg/injection, schedule: Q04DX003 (ip), vehicle: saline with Tween-80); 101 % of control under setting [5]; 95 % of control (endpoint: mean survival time, dose: 50.0 mg/kg/injection, schedule: Q04DX003 (ip), vehicle: saline with Tween-80).

For `O=P(OCCCOCc1ccccc1)(N(CCCl)CCCl)N1CC1` (centres undefined), the T/C is 104 % of control (endpoint: mean survival time, dose: 25.0 mg/kg/injection, schedule: Q01DX001 (ip), vehicle: other); 106 % of control (endpoint: mean survival time, dose: 50.0 mg/kg/injection, schedule: Q01DX001 (ip), vehicle: other); 98 % of control (endpoint: mean survival time, dose: 100.0 mg/kg/injection, schedule: Q01DX001 (ip), vehicle: DMSO); 118 % of control (endpoint: mean survival time, dose: 100.0 mg/kg/injection, schedule: Q01DX001 (ip), vehicle: other); 103 % of control (endpoint: mean survival time, dose: 200.0 mg/kg/injection, schedule: Q01DX001 (ip), vehicle: DMSO); 101 % of control (endpoint: mean survival time, dose: 200.0 mg/kg/injection, schedule: Q01DX001 (ip), vehicle: other). For the same compound, the T/C reads like this: (endpoint: mean survival time, dose: 400.0 mg/kg/injection, schedule: Q01DX001 (ip), vehicle: DMSO) 109 % of control; (endpoint: mean survival time, dose: 400.0 mg/kg/injection, schedule: Q01DX001 (ip), vehicle: other) 87 % of control.

For the compound `c1ccc2c(c1)oc1ccccc12`, the T/C is, setting by setting: under setting [10], 98 % of control; under setting [12], 92 % of control; under setting [14], 92 % of control.

Turning to `O=C1c2ccccc2C(=O)N1CCCl`, the T/C is 91 % of control under setting [9], 91 % of control under setting [11] and 92 % of control under setting [13].

As for `O=S(=O)(O)CCCl`, the T/C under setting [5] is 96 % of control, the T/C under setting [9] is 96 % of control and the T/C under setting [11] is 96 % of control.
